How the values were obtained:
PAI-1 expression = experiment: TGF-β1-induced PAI-1 expression, Northern blot, Mv1Lu cells; format: cell-based, mink; settings: for enhancement of PAI-1 expression: 1 μM, 16 hr
Experimental: (A, B, C, D, E, F) Cells were treated with 50 μg/ml cholesterol (A, B, C, D) and 50 μg/ml LDL (D) at 37° C. for 1 hr or with 1 μM fluvastatin or lovastatin (E) or several concentrations of fluvastatin (F) at 37° C. for 16 hr and then further incubated with increasing concentrations (as indicated) of TGF-β1 (A, B, C, E) or 50 pM TGF-β1 (D,F) for 2 hr. Northern blot analysis of PAI-1 and G3PDH was performed. A representative of a total of three analyses is shown (a). The relative intensities of the transcripts were quantified with a PhosphoImager. The ratio of the relative intensities of PAI-1 and G3PDH transcripts in cells treated without TGF-β1 and cholesterol, LDL or statins on the blot was taken as 1 fold or 100% of PAI-1 expression. The quantitative data from three independent analyses is shown (b). […] (G) Mv1Lu cells stably expressing a luciferase reporter gene driven by the PAI-1 promoter (MLECs-clone 32) were treated with increasing concentrations (as indicated) of cholesterol at 37 EC for 1 hr (a) or with 1 μM lovastatin at 37° C. for 16 hr (b) and then further incubated with 50 pM TGF-β for 7 hr. The luciferase activity in cells treated without cholesterol was taken as 100% (a). […] (H) Cells were incubated with 0.0625 and 0.125 pM TGF-β1 in the presence of increasing concentrations of cholesterol, as indicated. […] The experiments were carried out in triplicate.

TβR-I and TβR-II = experiment: Lipid raft / non-lipid raft localization by sucrose density gradient ultracentrifugation, Mv1Lu cells; format: cell-based, mink; settings: for plasma membrane microdomain localization of TβR-II (FIG. 5F): 1 μM statin 16 hr, nystatin 25 μg/ml or cholesterol 50 μg/ml 1 hr
Experimental: (A, B, C, D) Cells were treated with or without 50 μg/ml cholesterol (A,B,C,D) or several concentrations of cholesterol, as indicated in the presence and absence of 1% β-CD (E) at 37° C. for 1 hr and further incubated with (C,D) and without (A,B) 50 pM TGF-β1 for 1 hr. The cell lysates from these treated cells were subjected to sucrose density gradient ultracentrifugation. After ultracentrifugation, fractions were collected and analyzed by 7.5% SDS-PAGE followed by Western blot analysis using antibodies to TβR-I, TβR-II and caveolin-1. […] Fractions 4 and 5 represent fractions containing lipid rafts/caveolae whereas fractions 7 and 8 represent non-lipid raft fractions.
(F, G) Cells were treated with or without 1 μM lovastatin/fluvastatin or nystatin (25 μg/ml)/cholesterol (50 μg/ml) at 37° C. for 16 hr or 1 hr, respectively. The treated cells were directly analyzed by sucrose density gradient ultracentrifugation analysis (F) or further incubated with 50 pM TGF-β at 37° C. for several time periods as indicated (G). Western blot analysis of the sucrose density gradient fractions (F) and of TGF-β1-treated cell lysates (G) was performed using antibody to TβR-II. The relative levels of TβR-II and α-actin were quantified by densitometry. Fractions ⅘ and 7 represent lipid raft/caveolae and non-lipid raft fractions, respectively. The asterisk (*) indicates the increased level of TβR-II in the fraction (F). The ratio of the relative intensities of TβR-II and α-actin in cells treated without TGF-β1 was taken as 100% of the TβR-II level. A representative of a total of three independent analyses is shown (G, top). The quantitative data from three independent analyses is shown (G, bottom). The data bar represents the mean±S.D.
Mv1Lu, CHO-K1, or NRK cells were grown to near confluence in 100-mm dishes (5-10×10^6 per dish). Cells were incubated with cholesterol ([…]) at 37° C. for 1 hours and then incubated with TGF-β1 (100 pM) for 1 hr. After two washes with ice-cold phosphate-buffered saline, cells were scraped into 0.85 ml of 500 mM sodium carbonate, pH 11.0. Homogenization was carried out with 10 strokes of a tight-fitting Dounce homogenizer followed by three 20-s bursts of ultrasonic disintegrator, (Soniprep 150; Fisher Scientific) to disrupt cellular membranes as described previously (32). The homogenates were adjusted to 45% sucrose by addition of 0.85 ml of 90% sucrose in 25 mM 2-(N-morpholino) ethanesulfonic acid, pH 6.5, 0.15 M NaCl (MBS), and placed at the bottom of an ultracentrifuge tube. […] Ten 0.5-ml fractions were collected from the top of the tubes, and a portion of each fraction was analyzed by SDS-PAGE followed by Western blot analysis using antibodies to TβR-I and TβR-II and caveolin-1. […]

| Structure (SMILES) | enhancement of PAI-1 expression (PAI-1 expression; 10 pM TGF-β1, Mv1Lu cells) | enhancement of PAI-1 expression (PAI-1 expression; 50 pM TGF-β1, Mv1Lu cells) [fold] | plasma membrane microdomain localization of TβR-II (FIG. 5F) (TβR-I and TβR-II) | suppression of TGF-β1-stimulated PAI-1 expression (PAI-1 expression; 50 μg/ml, TGF-β1 2 to 100 pM, Mv1Lu cells) | localization of TβR-I and TβR-II in plasma membrane fractions (TβR-I and TβR-II; 50 μg/ml, 1 hr, fractions 4 and 5) | effect on the LDL and cholesterol suppression of PAI-1 expression (PAI-1 expression; 25 μg/ml nystatin present, data not shown) |
| --- | --- | --- | --- | --- | --- | --- |
| CC[C@H](C)C(=O)O[C@H]1C[C@@H](C)C=C2C=C[C@H](C)[C@H](CC[C@@H]3C[C@@H](O)CC(=O)O3)[C@H]21 [lovastatin, reference compound] | did not enhance | 3 | increased the localization of TβR-II in non-lipid raft microdomains |  |  |  |
| CC(C)CCC[C@@H](C)[C@H]1CC[C@H]2[C@@H]3CC=C4C[C@@H](O)CC[C@]4(C)[C@H]3CC[C@]12C [cholesterol] |  |  | increased the localization of TβR-II in lipid rafts/caveolae | 65-70% | enriched in the lipid raft/caveolae fractions |  |
| C[C@@H]1[C@H](O)[C@@H](C)/C=C/C=C/CC/C=C/C=C/C=C/C=C/C(O[C@H]2O[C@H](C)[C@@H](O)[C@H](N)[C@@H]2O)CC2O[C@](O)(CC(O)C(O)CCC(O)CC(O)CC(O)CC(=O)O[C@H]1C)CC(O)C2C(=O)O (some centres unmarked) [nystatin, reference compound] |  |  | increased the localization of TβR-II in non-lipid raft microdomains |  |  | abolished |
